Assay results taken from patent US20240252508A1, “Novel glucose uptake inhibitors for use in the treatment of cancer” (NOVELYEAST BV, priority 2021, published 2024).

How the values were obtained:
tps1Δ cells = assay: Growth rescue of tps1Δ strain on glucose (growth curves, 2% galactose medium); assay type: cell-based, S. cerevisiae; settings: 100 μM compound, 2.5 mM glucose
How it was run: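 Growth at 30 °C was tracked by OD595 readings every 30 min, with at least triplicate technical wells. Cells came from 2% galactose synthetic precultures, were washed and set to OD 0.1, and received compound 10 min ahead of the glucose addition.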

[1] = tested on: A549 lung adenocarcinoma cells; assay: A549 cell proliferation / growth inhibition; assay type: cell-based, human; settings: for Selected from primary screen for growth inhibition of A549 cells at 50 μM: 50 μM compound, 1 mM glucose; for Selected for having an IC50 ratio (10 mM glucose: 1 mM glucose) of A549 growth higher than WBC-A: IC50 on 10 mM vs 1 mM glucose, compared with WBC-A
How it was run: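 A549 growth screened in RPMI with 1 mM glucose, compounds at 50 μM; cell number from counts of Hoechst-stained nuclei after 3 days. Growth curves also followed by IncuCyte phase-contrast confluency over 3–5 days (1000–1500 cells/well), DMSO ≤0.1%, ≥4 technical repeats.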

Compound	Rescue of the tps1Δ strain on 2.5 mM glucose at 100 μM (tps1Δ cells)	Selected from primary screen for growth inhibition of A549 cells at 50 μM [1]	Selected for having an IC50 ratio (10 mM glucose: 1 mM glucose) of A549 growth higher than WBC-A [1]
COC(=O)CSc1nc(C)nc2sc3c(c12)CCC3 [14C]	No	No	
Cc1nc(SCC(=O)N2CCOCC2)c2c3c(sc2n1)CCCC3 [52C]	No	No	
CC(=O)CSc1nc(C)nc2scc(-c3cccs3)c12 [26B]	No	No	
Cc1cc(C)nc(Sc2nc(CN3CCOCC3)nc3scc(-c4cccs4)c23)n1 [64C]	No	Yes	Lower IC50 ratio
Cc1nc(N2CCCC(c3nncn3C)C2)c2c(-c3cccs3)csc2n1 (centres unmarked) [38A]	No	No	
O=c1ccnc(Sc2nc(CN3CCOCC3)nc3scc(-c4cccs4)c23)[nH]1 [7A]	No	No	
CNc1nnc(Sc2nc(C)nc3scc(-c4cccs4)c23)s1 [32A]	No	No	
Cc1nc(SCC(=O)NC(=O)NCc2ccco2)c2cc(-c3ccccc3)sc2n1 [40B]	No	Yes	Lower IC50 ratio
Cc1nc(NCC(=O)N2CCCC2)c2c(-c3cccs3)csc2n1 [24B]	No	Yes	Lower IC50 ratio
Cc1nc(SCCN2CCOC2=O)c2c(-c3cccs3)csc2n1 [26C]	Yes	No	
Cc1nc(SCC(=O)NC(N)=O)c2c(-c3cccs3)csc2n1 [6B]	Yes	Yes	Lower IC50 ratio
Cc1nnc(Sc2ncnc3scc(-c4ccccc4)c23)n1C [19A]	No	No	
Cc1nc(SCC(N)=O)c2c3c(sc2n1)CCC3 [49C]	No	No	
COC(=O)CSc1nc(C)nc2scc(-c3cccs3)c12 [53A]	Yes	No	
Cc1sc2nc(CN3CCOCC3)nc(Sc3nnc4n3CCCCC4)c2c1C [28A]	No	No	
CCn1c(Sc2nc(C)nc3scc(-c4cccs4)c23)n[nH]c1=O [51A]	No	Yes	Lower IC50 ratio
Cc1nc(Sc2nnc3n2CCCCC3)c2c3c(sc2n1)CCC3 [63A]	No	No	
OCCSc1ncnc2sc(-c3ccccc3)cc12 [30C]	No	No	

Compound	Rescue of the tps1Δ strain on 2.5 mM glucose at 100 μM (tps1Δ cells)	Selected from primary screen for growth inhibition of A549 cells at 50 μM [1]	Selected for having an IC50 ratio (10 mM glucose: 1 mM glucose) of A549 growth higher than WBC-A [1]
Cc1ccc(-c2csc3ncnc(Sc4ncccn4)c23)cc1 [50A]	No	No	
COC(=O)CN(C)c1nc(C)nc2scc(-c3ccc(OC)c(OC)c3)c12 [67C]	No	Yes	Lower IC50 ratio
Cc1nc(SCC(=O)Nc2c(Cl)cccc2C(F)(F)F)c2c(-c3cccs3)csc2n1 [19C]	No	No	
Cc1nc(SCC(=O)N(Cc2ccccc2)Cc2ccccc2)c2c(-c3cccs3)csc2n1 [22B]	No	No	
Cc1nc(SCC(=O)N(CC(C)C)CC(C)C)c2c(-c3cccs3)csc2n1 [44B]	No	Yes	Lower IC50 ratio
Cc1nc(Sc2nnc3ccccn23)c2c(-c3cccs3)csc2n1 [30A]	No	No	
Cc1nc(SCC(=O)c2ccc3c(c2)NC(=O)CO3)c2c(-c3cccs3)csc2n1 [11C]	Yes	Yes	Higher IC50 ratio and confirmed
Cc1nc(Sc2nnc(-c3ccncc3)n2C)c2c(-c3cccs3)csc2n1 [26A]	Yes	Yes	Lower IC50 ratio
c1csc(-c2csc3nc(CN4CCOCC4)nc(Sc4ccncc4)c23)c1 [40C]	No	Yes	Lower IC50 ratio
O=C(CSc1ncnc2scc(-c3ccccc3)c12)N1CCOCC1 [60C]	No	No	
Cc1nc(SCC(=O)C(C)(C)C)c2c(-c3cccs3)csc2n1 [18A]	No	Yes	Lower IC50 ratio
Cc1nnc(Sc2nc(-c3cccs3)nc3scc(-c4ccccc4)c23)n1N [8A]	No	No	
COc1cccc(NC(=O)CSc2nc(C)nc3scc(-c4cccs4)c23)c1 [45B]	No	Yes	Higher IC50 ratio, but false-positive
CC1CN(C(=O)CSc2ncnc3scc(-c4ccc(F)cc4)c23)CCO1 (centres unmarked) [37C]	No	No	
CC(C)Sc1nc(SCCN2CCOCC2)c2c3c(sc2n1)COC(C)(C)C3 [80C]	No	No	
Cc1cc(C)n2nc(Sc3nc(C)nc4scc(-c5cccs5)c34)nc2n1 [3A]	No	No	
Cc1ccc(-c2csc3ncnc(SCC(=O)NCc4ccco4)c23)cc1 [8B]	No	Yes	Lower IC50 ratio
COc1ccc(-c2csc3ncnc(Sc4nnc(-c5cccc(C)c5)n4CC(N)=O)c23)cc1 [21A]	No	Yes	Lower IC50 ratio
